The values below are quoted from earlier work in US20230233572A1, “OPHTHALMIC COMPOSITIONS COMPRISING A COMBINATION OF FLUOROQUINOLONE ANTIBACTERIAL AGENT AND AN ANTI-INFLAMMATORY AGENT” (priority 2020, published 2023).

The structures appear in SMILES notation.

In this series the test system is corneal surface of rabbit eyes. Conditions: in vivo.

On to `CC(O)COC[C@H]1O[C@@H]2O[C@H]3[C@H](O)[C@@H](O)[C@@H](O[C@H]4[C@H](O)[C@@H](O)[C@@H](O[C@H]5[C@H](O)[C@@H](O)[C@@H](O[C@H]6[C@H](O)[C@@H](O)[C@@H](O[C@H]7[C@H](O)[C@@H](O)[C@@H](O[C@H]8[C@H](O)[C@@H](O)[C@@H](O[C@H]1[C@H](O)[C@H]2O)O[C@@H]8COCC(C)O)O[C@@H]7COCC(C)O)O[C@@H]6COCC(C)O)O[C@@H]5COCC(C)O)O[C@@H]4COCC(C)O)O[C@@H]3COCC(C)O` (stereo partly drawn) [HP-β-CD, hydroxypropyl-β-cyclodextrin], for which the “Tolerance by the corneal surface” value is listed as “well tolerated” and the “Toxicity or irritation in rabbit eyes” value is “not to be toxic or irritating”.
